Results from patent EP1101496A1, “THERAPEUTIC AGENTS FOR ALLERGIC DISEASES” (FUJI YAKUHIN KOGYO KABUSHIKI KAISHA, priority 1998, dated 2000).

What was measured:
[1] = test system: mouse scratching behavior; experiment: Scratching behavior in experimental atopic dermatitis model; format: in vivo, mice; settings: for % Inhibition (scratching behavior) / Scratching Behavior (Times) (Average± Deviation): 0.1% in ethanol painted on auricles 1 hour pre-elicitation; for % Inhibition (scratching behavior): 15 to 30 min and 30 to 45 min post-elicitation durations, versus solvent control; for Scratching Behavior (Times) (Average± Deviation): counts for the 15 to 30 min and 30 to 45 min post-elicitation durations
Experimental: Mice were passively sensitized with anti-DNP IgE Ab and then elicited by painting 0.1% DNFB in ethanol onto both sides of a pair of mouse auricles […] in the same manner as in Example 1. Five minutes pre-elicitation, an ethanolic solution containing 0.3% of Compound No. 20 was painted onto both sides of a pair of the auricles at a dose of 10 µL per each side. Tacrolimus (Fujisawa Pharmaceutical Co., Ltd.) was used as a positive control drug. An ethanolic solution containing 0.1% of the positive control drug was prepared just prior to use and then painted onto the mouse auricles 1 hour pre-elicitation in the same manner as for the painting of Compound No. 20. A negative control group was painted with a solvent alone (6 animals per group).
From the point immediately after elicitation, each mouse was housed individually in a comparted acrylic cage and observed by taking a video without any attendant up to 2 hours after elicitation (Inagaki, N., et al., The European Journal of Pharmacology, 367: 361-371, 1999). After finishing such a video recording, scratching behavior by mouse hind paws to a pair of ears was visually examined for each mouse and integrated scratching behaviors were counted during 6 post-elicitation durations for 20 minutes each; 0 to 20 min., 20 to 40 min., 40 to 60 min., 60 to 80 min., 80 to 100 min., and 100 to 120 min. In this experiment, an action from a start to scratch the ear by the mouse hind paw to a release of the hind paw is counted as one scratching behavior.
Mice were passively sensitized with anti-DNP IgE Ab and then elicited with 0.1% DNFB in ethanol 24 hours post-sensitization in the same manner as in Example 12. One hour pre-elicitation, a 0.1% solution of a metalloproteinase inhibitor (Compound No. 20 or 21) in ethanol was painted onto both sides of a pair of the auricles at a dose of 10 µL per each side. A negative control group was painted with a solvent alone. From the point immediately after the elicitation, each mouse was housed individually in a comparted cage and observed by taking a video without any attendant up to 2 hours thereafter (3 animals per group). In the same manner as in Example 12, scratching behaviors by mouse hind paws were counted for every 15 minutes: 8 post-elicitation durations; 0 to 15 min., 15 to 30 min., 30 to 45 min., 45 to 60 min., 60 to 75 min., 75 to 90 min., 90 to 105 min., and 105 to 120 min.

[2] = test system: Experimental Bronchial Asthma Model; experiment: Experimental bronchial asthma model (ovalbumin-sensitized, airway resistance and asthmatic death); format: in vivo, Guinea pigs
Experimental: Guinea pigs (female, Std:Hartley, 3 weeks old, 200 to 250 g) were individually housed in a plastic chamber (width, 200 mm; depth, 300 mm; height, 167 mm). Aqueous ovalbumin (10 mg/mL) was administered to the guinea pigs once a day for sensitization by 10 min. inhalation with a nebulizer (5B, Nippon Shoji K.K.: flow rate, 6 L/min.) at a dose of 10 mg/mL during 8 cosecutive days. On Day 7 after the final sensitization, the guinea pigs were housed in a plastic chamber and inhaled using a nebulizer with a solution of ovalbumin (10 mg/mL) in physiological saline for 1 min. for elicitation (Matsumoto, T., et al., The Journal of Pharmacology and Experimental Therapeutics, 269: 1236-1244, 1994). The number of animals employed in the experiment was set to the extent there are at least 6 as individuals escaping asthmatic death. A solution of a test metalloproteinase inhibitor (Compound No. 8, 15 mg/kg) in water for injection was administered subcutaneously twice, i.e., 24 hours and 2 hours prior to elicitation. Similarly, the solvent alone was also administered to a negative control group. A suspension of prednisolone (10 mg/kg) in 0.5% aqueous methyl cellulose was administered orally twice, i.e., 24 hours and 2 hours prior to elicitation. Similarly, the solvent alone was also administered to another control group.
The evaluation for efficacies was conducted in terms of airway resistance. For this purpose, an apparatus dedicated to the measurement of airway resistance (K.K. Medical Agent) was employed. Measurement includes setting a guinea pig in a test chamber under a not-anesthetized condition, applying sinusoidal pressure waves of 30 Hz components to a part below the neck of the animal from the back side of the chamber, measuring respiratory waves of 30 Hz components leaking through the mouth (volume of 30 Hz air flow passing through the respiratory tract) in front of the neck, and calculating airway resistance mechanically. Measurement was carried out immediately prior to the first drug treatment (24 hours before elicitation), just prior to elicitation, 10 minutes, 1, 2, 4, 6, and 8 hours post-elicitation.
It was visually observed by a person carrying out said test in terms of the appearance of cyanosis or suffocative death (asthmatic death) due to respiratory obstruction.
Guinea pigs were sensitized with ovalbumin and asthma was induced on Day 7 after final sensitization in the same manner as in Example 18. The number of animals employed in the experiment was set to the extent there are at least 6 as individuals escaping asthmatic death (8 to 11 animals/group). In the same manner as in Example 18, the animals were measured for airway resistance mechanically and each percent change (%) in airway resistance was calculated (each value just prior to elicitation was set as 100%). Each percent amelioration in airway resistance was calculated from the percent changes in airway resistance according to the following formula: Amelioration in Airway Resistance (%) = 1 -[((Percent Change in Airway Resistance after Drug-Administration)-(Value just prior to Challenge (100)))/((Percent Change in Airway Resistance after Solvent -Administration)-(Value just prior to Challenge (100)))]× 100 [formula]
A solution of a test metalloproteinase inhibitor (Compound No. 22: 15 mg/kg or 30 mg/kg) in water for injection or the solvent alone as a negative control was administered to each animal subcutaneously twice, i.e., 24 hours and 2 hours prior to elicitation.

[3] = Body weight gain in sensitized mice (experimental atopic dermatitis model); format: in vivo; settings: painted on auricles twice a day; Compound No. 8 50 µg/ear/dose, prednisolone 5 µg/ear/dose; Days 1, 4 and 7; versus solvent control (ethanol)
Experimental: Experimental atopic dermatitis model mice sensitized in the same manner as in Example 1 were examined for influence on body weight gains.
A solution of a test metalloproteinase inhibitor (Compound No. 8; 50 µg/ear/dose, twice a day) in ethanol or a solution of prednisolone (5 µg/ear/dose, twice a day) in ethanol was administered to mice (5 animals per group) by painting onto both sides of a pair of the auricles, not only one hour prior to elicitation but also 0.25, 3, 4, 5 and 6 days post-elicitation. Each mouse was measured for its body weight not only immediately before the start in painting but also on Days 1, 4 and 7 after the start in painting. Each gain in body weight was calculated and considered to indicate an effect on body weight changes affected by said treatments.

[4] = test system: infiltration of leukocytes into an air pouch; experiment: Allergic inflammation model (air pouch model); format: in vivo, rats; settings: 10 mg/kg or 30 mg/kg into the air pouch or intraperitoneally; 8 hours after the second challenge; dexamethasone 0.1 mg/kg as comparison
Experimental: Compound No. 8 was dissolved in physiological saline to make the final concentration 2.5 mg/mL (equal to 10 mg/kg) or 7.5 mg/mL (equal to 30 mg/kg) and administered into an air pouch of animals or intraperitoneally at a dose of 4 mL/kg. Dexamethasone was also dissolved in physiological saline to make the final concentration 25 µg/mL (equal to 0.1 mg/kg) and administered into an air pouch of animals at a dose of 4 mL/kg. Administration into such an air pouch was conducted simultaneously with the second challenge while the intraperitoneal administration was 30 minutes prior to the second challenge. Acetylated bovine serum albumin diazo-coupled with arsanilic acid (ABA-AcBSA) was prepared according to the Ouchi et al. and Tabachnick et al. methods as disclosed in Ouchi et al., "Seibutsu Yakukagaku Jikken Koza, Ensho To Allergy (Inflammation and Allergy) I-2", pp.194 to 206, Hirokawa Publishing Co., Japan and Tabachnick et al., The Journal of Biological Chemistry, 234: 1726- 1730, 1959, and mixed with a Freund's complete adjuvant (Difco) at an equal ratio. The mixture was treated using a connection-type glass syringe to form an emulsion which was used as a sensitizing solution. […] The retrieved exudates were measured by a dye-exclusion method using a haematocytometer and the number of exudated leukocytes were counted.

[5] = suffocative death due to cyanosis just after elicitation, Compound No. 8 15 mg/kg s.c., prednisolone 10 mg/kg orally, 24 and 2 hours prior to elicitation

Compound	% Inhibition (scratching behavior) [1] [%]	Scratching Behavior (Times) (Average± Deviation) [1]	inhibitory efficacy on scratching in the 20 to 40 min post-elicitation duration (FIG. 8) ([1]; 0.3% Compound No. 20 versus 0.1% tacrolimus, painted on auricles)	efficacy on mouse scratching behavior (FIG. 8) ([1]; 0.3% ethanolic solution painted on auricles 10 µL per side 5 minutes pre-elicitation, observed up to 2 hours)	airway resistance (FIG. 11) ([2]; 15 mg/kg s.c. 24 hours and 2 hours prior to elicitation, IAR 1 hour and LAR 6 hours post-elicitation)	% Mortality [2, 5] [%]	(Dead Animals)/(Tested Animals) [2, 5]	gain in body weight (FIG. 9) [3]	infiltration of leukocytes into an air pouch (FIG. 13) [4]
CNC(=O)[C@H](Cc1ccc(NC(=N)N)cc1)NC(=O)[C@H](CC(C)C)C(CCCc1ccccc1)C(=O)NO.Cl (single isomer, unassigned) [Compound No. 20, N-[4-(N-hydroxyamino)-2(R)-isobutyl-3(R or S)-(3-phenyltrimethylene)succinyl]-L-4'-guanidophenylalanine-N-methylamide 1 hydrochloride]	40.7	124.0 ± 43.6	higher than that of tacrolimus	apparently inhibits mouse scratching behavior	–	–	–	–	–
CNC(=O)[C@H](Cc1ccc(NC(=N)N)cc1)NC(=O)[C@H](CC(C)C)C(CCCc1ccccc1)C(=O)NO (single isomer, unassigned) [Compound No. 8, N-[4-(N-hydroxyamino)-2(R)-isobutyl-3(R or S)-(3-phenyltrimethylene)succinyl]-L-4'-guanidophenylalanine-N-methylamide 1 acetate]	–	–	–	–	significant reduction of the increased airway resistance	0.0	0/10	almost equivalent to that in the solvent control group	significantly inhibited
CNC(=O)[C@H](Cc1ccc(N=C(N)N)cc1)NC(=O)[C@@H](CC(=O)NO)CC(C)C.O=S(=O)(O)O [Compound No. 21, N-[4-(N-hydroxyamino)-2(R)-isobutylsuccinyl]-L-4'-guanidophenylalanine-N-methylamide 1 sulfate]	54.1	96.0 ± 32.6	–	–	–	–	–	–	–
